Results published in patent publication US20240197700A1, “Methods and Compositions for Treating Lysosomal Storage Disorders” (Sanford Health, priority 2021, published 2024).
“Also recorded” adds a separate entry of the source.

Key:
Cathepsin D = Cathepsin D enzyme in MEF lysates; format: cell-based, mouse
Protocol: Since LM11A-31 stimulates the nuclear translocation of transcription factors responsible for lysosome biogenesis, we asked whether LM11A-31 increases the overall activity levels of lysosomalenzymes in cellulo. […] Wild type (WT) and mutant cells were treated with vehicle or LM11A-31 (100 nM). Cells were plated on day 0 and dosed with drug-containing media on DIV3 and DIV5. Cells were lysed, and protein quantification and enzyme activity assay were performed on DIV7. Data was analyzed with GraphPad Prism™. Two-way ANOVA. Mean±S.E.M. Tukey's multiple comparisons test. *p<0.05, **p<0.01, ***p<0.001, ****p<0.0001. […] Palmitoyl-protein thioesterase 1 (PPT1) is the lysosomal enzyme mutated in CLN1 disease and removes thioester-linked fatty acyl groups from modified cysteines of substrate proteins. Tripeptidyl peptidase 1 (TPP1) is the lysosomal enzyme mutated in CLN2 disease and has broad substrate specificity against various proteins degraded in the lysosome after cleavage. Mutations in the CTSD gene, encoding cathepsin d, a lysosomal protease that is involved in the recycling and degradation, is a known cause of Cln10 disease.

TFEB target genes = assay: Comparative transcriptomic analysis (RNA sequencing, DEGs) in wild type MEFs; format: cell-based, mouse; settings: 40 nM, dosed DIV3, RNA isolation DIV5
Protocol: Comparative transcriptomic analysis of differentially expressed genes in AF38469 treated and vehicle treated wild type mouse embryonic fibroblasts. Wild type mouse embryonic fibroblasts were treated with vehicle or AF38469 (40 nM). Cells were plated on in vitro day 0, and cells were dosed with drug-containing media on DIV3, collection and RNA isolation occurred on DIV5. RNA sequencing and differentially expressed gene (DEG) analysis was performed with Novogene. DEGs were compared to lists of lysosomal genes and genes under TFEB regulation.

Cln2^R207X mice [1] = assay: Microglial activation (CD68) in brain of Cln2^R207X mice; format: in vivo, mouse
Protocol: (§1) Specific experimental details are included in figure legends. In general, after collection and preparation, MEFs and PNCs were dosed with vehicle or AF38469 (40 nM, 400 nM. or 4 μM) on DIV3 and DIV5. On DIV7, cells were treated with the following dyes: Hoechst 33342 (1:1000 dilution), LysoTrackerT™ Red DND-99 (1:10,000 dilution), fixed, and imaged. Mice were given vehicle or AF38469 (78.125 μg/ml, 3.125 μg/ml, 0.3125 μg/ml or 0.03125 μg/ml equating approximately to 250 μg/mouse/day, 10 μg/mouse/day, 1 μg/mouse/day, and […], respectively, given a mouse's daily water intake of approximately 3.2 ml per day) in drinking water beginning at wean. Body weight was measured bi-weekly, and a force actimeter test was performed on Cln2^R207X mice at 10 weeks of age. Body weight was measured every month for Cln3^Δex7/8 mice. At 11 and 16 weeks of age, respectively, Cln2^R207X and Cln3^Δex7/8 mice along with age matched wild type control mice were CO2 euthanized and intracardially perfused with PBS. Brains were collected and placed on a 1 mm sagittal brain block. Brains were sliced at the midline and 3 mm right of the midline. One hemisphere was fixed in 4% PFA and sectioned at 50 microns on a vibratome. Immunohistochemistry was performed on free-floating sections. For mitochondrial ATP synthase subunit C (SubC), glial fibrillary acidic protein (GFAP), and cluster of differentiation 68 (CD68) immunolabeling, primary antibodies included anti-SubC (Abcam, ab181243; 1:1000), anti-GFAP (Dako, Z0334; 1:5000), anti-CD68 (AbD Serotec, MCA1957; 1:2000), and secondary antibodies included anti-rabbit biotinylated (Vector Labs, BA-1000 1:1000) and anti-rat (Vector Labs, BA-9400 1:1000). Coverslips were mounted on slides using antifade-mounting media and were stored in the dark before imaging. Sections were imaged and analyzed using an Aperio Digital Pathology Slide Scanner (AT2) and associated software. Images were extracted from S1BF of the somatosensory cortex and the VPM/VPL of the thalamus, with multiple images taken of multiple tissues from each animal.
Short-term chronic treatment with AF38469 impacts glial activation in Cln2^R207X mice. Beginning at wean, wild type and Cln2^R207X mice were treated with vehicle (0.2408% DMSO) or AF38469 (0.03125 μg/ml, 0.3125 μg/ml, 3.125 μg/ml, 78.125 μg/ml) continuously through the drinking water continuing until sacrifice at 11 weeks. […] Sections were imaged and analyzed using an Aperio Digital Pathology Slide Scanner (AT2) and associated software. […] Percent area of immunoreactivity were quantified using a threshold analysis in ImageJ™. […]

Cln2^R207X mice [2] = assay: Astroglial activation (GFAP) in brain of Cln2^R207X mice; format: in vivo, mouse
Protocol: as §1
Short-term chronic treatment with AF38469 impacts glial activation in Cln2^R207X mice. Beginning at wean, wild type and Cln2^R207X mice were treated with vehicle (0.2408% DMSO) or AF38469 (0.03125 μg/ml, 0.3125 μg/ml, 3.125 μg/ml, 78.125 μg/ml) continuously through the drinking water continuing until sacrifice at 11 weeks. Upon sacrifice, one hemisphere of brain was sectioned at 50 microns on a vibratome; DAB staining immunohistochemistry was then performed using anti-GFAP (Dako, Z0334; 1:5000), anti-CD68 (AbD Serotec, MCA1957; 1:2000), anti-rabbit biotinylated (Vector Labs, BA-1000 1:1000), and anti-rat (Vector Labs, BA-9400 1:1000). Sections were imaged and analyzed using an Aperio Digital Pathology Slide Scanner (AT2) and associated software. Images were extracted from S1BF of the somatosensory cortex and the VPM/VPL of the thalamus. Percent area of immunoreactivity were quantified using a threshold analysis in ImageJ™. Statistical analyses were performed using GraphPad Prism™ (v8.4.3; San Diego, CA). […] Increasing concentrations of AF38469 and corresponding genotypes are shown along the x-axis. Nested one-way ANOVA. Mean±S.E.M. Dunnett's multiple comparisons test compared to the mutant vehicle treated group. *p<0.05, **p<0.01, ***p<0.001, ****p<0.0001. Reactive gliosis including activated microglia and reactive astrocytes is one of the histopathologies associated with neurodegenerative diseases such as NCLs.

[3] = higher doses, summary statement

| Compound | levels of Cathepsin D (Cathepsin D; LM11A-31 100 nM, Cln2^R207X and Cln3^Δex7/8 MEFs, DIV7) | overall levels of activity for Cathepsin D enzyme in cell lysates (Cathepsin D; LM11A-31, overall statement (FIG. 15B)) | all lysosomal differentially expressed genes or lysosomal genes not regulated by TFEB (TFEB target genes) | expression of TFEB target genes (TFEB target genes) | microglial activation (CD68) (Cln2^R207X mice [1]; 3.125 μg/ml, 78.125 μg/ml, somatosensory cortex) | microglial activation (CD68) (Cln2^R207X mice [1]; 78.125 μg/ml, VPM/VPL of the thalamus) | CD68 reactivity (Cln2^R207X mice [1]; [3]) | microglial activation (CD68) (Cln2^R207X mice [1]; lower doses 0.03125 μg/ml, 0.3125 μg/ml, somatosensory cortex) | astroglial activation (GFAP) (Cln2^R207X mice [2]; 3.125 μg/ml, 78.125 μg/ml, VPM/VPL of the thalamus) | astroglial activation (GFAP) (Cln2^R207X mice [2]; 3.125 μg/ml, somatosensory cortex) | astroglial activation (GFAP) (Cln2^R207X mice [2]; 78.125 μg/ml, somatosensory cortex) | GFAP reactivity (Cln2^R207X mice [2]; [3]) | astroglial activation (GFAP) (Cln2^R207X mice [2]; lower doses 0.03125 μg/ml, 0.3125 μg/ml) |
| --- | --- | --- | --- | --- | --- | --- | --- | --- | --- | --- | --- | --- | --- |
| CC[C@H](C)[C@H](N)C(=O)NCCN1CCOCC1 [LM11A-31, N-[2-(morpholin-4-yl)ethyl]-L-isoleucinamide] | significantly decreased | increased the overall levels of activity | – | – | – | – | – | – | – | – | – | – | – |
| Cc1cccc(NC(=O)c2ccc(C(F)(F)F)cc2C(=O)O)n1 [AF38469, 2-((6-methylpyridin-2-yl)carbamoyl)-5-(trifluoromethyl)benzoic acid] | – | – | no distinct pattern of up or down regulation | stimulated increased expression; also recorded: stimulates; also recorded: distinct pattern of upregulation | did not significantly impact | significantly increased | increased or had no impact | significantly and potently decreased | did not impact | significantly increased | had no impact | increased or had no impact | had no significant impact; also recorded: did not significantly impact |
